The nature of series [1]: In vivo SPME sampling of whole blood for pharmacokinetics after i.v. bolus diazepam. The following applies: rat; for AUMC0-inf / AUMC0-tlast: metabolite, SPME (blood, equilibrium calibration), i.v. bolus 0.5 mg/kg diazepam, noncompartmental; for AUMC: SPME/blood, 2-compartment analysis. The method, then:
(§1) Animal Experiments: Male Sprague-Dawley rats (Charles River Labs, St. Constant, PQ) with an average weight of 300 g are acclimatized to their new environment for a minimum of 5 days prior to surgery. […] The catheters are plugged with removable metal plugs at the free end and then exteriorized by threading them under the skin and through a small incision at the nape of the neck. Animals are allowed to recover overnight prior to dosing. […] In vivo mouse experiments are conducted with conscious male Swiss Webster mice implanted with a carotid artery catheter. All procedures followed have been reviewed by the NoAb BioDiscoveries Inc. animal care committee and were performed in accordance with the principles of the Canadian Council on Animal Care (CCAC).
A device to extract components is attached to the carotid artery catheter prior to dosing each rat or mouse. To insert the probes, the tip of the SPME probe needle is used to pierce the septum of the device. The length of the fiber or wire of the probe is chosen so that the coated wire is completely exposed to the blood flow when the plunger is fully depressed. Before use, the SPME probe is sterilized in an autoclave at 121° C. and 15 psi for about 30 minutes. For validation purposes, blood draws are taken from the same interface after each sampling with SPME. All the probes are for single use.
(§2) For each time point (5, 15, 30, 45, 60, 75, 120, 180, 240 and 360 min), the probes are in place for about two (2) minutes before the stated analysis time and blood draws are performed immediately after removing the probes. After the two (2) minute extraction time, the probes are removed, rinsed with water, and stored at −20° C. until the next day, when analysis is performed. […] For SPME calibration, rat whole blood is spiked with appropriate amounts of benzodiazepines and incubated with 10% CO2 atmosphere. The analytical range is 3-750 ng/mL.
(§3) Areas under the plasma concentration versus time curves (AUCs) represent the areas under the curve from the time of dosing and extrapolated to infinity. […] The total body clearance (CL) is estimated as: Dose/AUC. Mean residence times (MRT) are calculated as: AUMC/AUC, where AUMC denotes the area under the first moment curve. The steady-state volume of distribution (Vss) is calculated as: CL*MRT.
(§4) AUCs are calculated by the linear/log-linear trapezoidal rule. AUCs represent the areas under the curve from the time of dosing: (1) to the time (tlast) of the last measurable concentration, Clast (AUC0-tlast) and, (2) extrapolated to infinity (AUC0-inf). AUC0-inf is estimated by the addition of AUC0-tlast and Clast/k, where k (or λz) represents the terminal elimination rate constant. K is estimated by weighted (1/Y^2) regression analysis of at least 4 time points from the terminal (log-linear) portion of the concentration versus time curve.
In vivo experiments are conducted with conscious male Sprague-Dawley rats implanted with jugular vein and carotid artery catheters. The catheters are plugged and exteriorized at the nape of the neck. Prior to dosing, the opening of the device is connected to the carotid artery catheter. The channel of the device is either connected to the jugular vein catheter or is connected to a syringe pump. Connecting the device to the jugular vein catheter allowed for automatic return of the arterial blood, using the pumping action of the heart of the animal. Connecting the device to a syringe allows for precise control of the blood flow rate through the device. The device and the associated tubing are kept warm at 38° C.
At each sampling time point, a sterile SPME device is placed through the septum into the interface so that only the coated portion of the fiber is exposed to the flowing blood. Blood flow through the device is either allowed to run freely via recirculation to the jugular vein or is induced by the push/pull action of a syringe attached to the channel.

Series [2] is described as follows: Conventional plasma sampling and analysis for pharmacokinetics after i.v. bolus diazepam. The following applies: rat; for AUMC0-inf / AUMC0-tlast: metabolite, i.v. bolus 0.5 mg/kg diazepam, noncompartmental; for AUMC: 2-compartment analysis. The method, then:
as §1, §2
Conventional Plasma Sampling and Analysis: In addition to SPME sampling, 0.2 mL of blood is withdrawn from the interface at each time point. Plasma is isolated by centrifugation at 2500 rpm for 10 minutes and frozen at −20° C. in 2 mL cryovials (Wheaton Science Products, Millville, N.J.) until analysis. For analysis, 0.05 mL of plasma is mixed with 0.25 mL acetonitrile containing 25 ng/mL lorazepam as internal standard in conical centrifuge vials. After vortex mixing (2400 rpm, 5 minutes) and centrifugation (14000 rpm, 7 minutes), 0.2 mL of the supernatant is transferred to a 96-well plate and evaporated to dryness under flowing nitrogen. The residue is dissolved in 0.1 mL acetonitrile/water (75:25) on a shaking bed (150 rpm). Twenty μL is injected for analysis using the same chromatographic conditions as for the analysis of SPME probes. The linear range is 0.1-1000 ng/mL.
as §3, §4
For validation of the in vivo sampling method taught by the applicant's teachings, blood is sampled after each probe extraction, and plasma is isolated by centrifugation.

For three compounds, AUMC0-inf, AUMC0-tlast and AUMC results are on record in US8104331B2, “Method and device to extract components contained in a fluid” (Noab Biodiscoveries Inc., priority 2006, dated 2012).

Take `O=C1CN=C(c2ccccc2)c2cc(Cl)ccc2N1` [Nordiazepam, nordiazepam]: in series [1], the AUMC0-inf came out at 50.0 h^2*ng/mL and the AUMC0-tlast came to 7.86 h^2*ng/mL. Besides, in series [2], the AUMC0-inf worked out at 16.5 h^2*ng/mL and the AUMC0-tlast was found to be 6.38 h^2*ng/mL.
On the same counts, the results for `O=C1Nc2ccc(Cl)cc2C(c2ccccc2)=NC1O` (stereo not drawn) [Oxazepam, oxazepam] are 834 h^2*ng/mL, 278 h^2*ng/mL, 293 h^2*ng/mL and 176 h^2*ng/mL.
In the case of `CN1C(=O)CN=C(c2ccccc2)c2cc(Cl)ccc21` [diazepam], the AUMC in series [1] (equilibrium calibration, diazepam 0.5 mg/kg i.v. bolus) came out at 527 h^2*ng/mL; in series [1] (kinetic calibration, diazepam 1 mg/kg i.v. bolus), 741 h^2*ng/mL; in series [2] (equilibrium calibration study, diazepam 0.5 mg/kg i.v. bolus) it was 319 h^2*ng/mL; in series [2] (kinetic calibration study, diazepam 1 mg/kg i.v. bolus), 1000 h^2*ng/mL.
